Data on one substance can be found in patent publication US12522855B2, “Methods and kits for identifying thrombus origin and optimizing post-ischemic event treatment” (TEL HASHOMER MEDICAL RESEARCH INFRASTRUCTURE AND SERVICES …, priority 2019, dated 2026).

The test addresses thrombin (Homo sapiens, UniProt P00734). Particulars: 1 μM final concentration, added to selected reaction wells; 15 clots from randomized sources.

Method: Thrombin activity was measured as previously described by Beilin et al., (2001, Neuroreport: doi:10.1097/00001756-200108080-00013) in 10 L triplicates of clot-free buffer in a black Nunc 96 wells microplate by a fluorometric assay quantifying the cleavage of the synthetic peptide thrombin substrate Boc-Asp(OBzl)-Pro-Arg-AMC (I-1560, Bachem, Switzerland, 13 μM final concentration). Measurements were performed by the Infinite 2000 microplate reader (Tecan, infinite 200, Switzerland) with excitation and emission filters of 360±35 and 460±35 nm, respectively. For calibration, known concentrations of bovine thrombin (Sigma-Aldrich, Israel) were used in the same assay.

Turning to NAPAP, the “effect on thrombin activity profile (specificity check of the fluorescent signal)” value was “high and consistent abolition of thrombin activity profile”.
